Experimental data reported in US8940762B2, “Methods for treating pain” (AbbVie Inc., priority 2010, dated 2015).

Columns and labels:
[1] = system: CCI rats (sciatic nerve-induced neuropathic pain); conditions: single dose p.o.; at less than about 100 micromoles/kg, for example less than about 30 micromoles/kg
Text: Food and water were available ad libitum at all times except during testing. […]
The von Frey filaments were presented perpendicularly to the plantar surface of the selected hind paw, and then held in this position for approximately 8 seconds with enough force to cause a slight bend in the filament. Positive responses included an abrupt withdrawal of the hind paw from the stimulus, or flinching behavior immediately following removal of the stimulus.

[2] = system: osteoarthritic rats (MIA-induced osteoarthritis pain); experiment: Monoiodoacetate-induced osteoarthritis (MIA-OA) pain model, hind limb grip force; assay type: in vivo, Sprague-Dawley rats; conditions: for percent return of grip force to normalcy: n=6
Experimental: Pain behavior was assessed by measurement of hind limb grip force (GF) in adult osteoarthritic rats. Unilateral knee joint osteoarthritis was induced in rats by a single intraarticular (i.a.) injection of sodium monoiodoacetate (MIA) (Sigma, St. Louis, Mo.) (3 mg in 0.05 ml sterile isotonic saline) into the joint cavity using a 26 G needle under light (2-4%) isoflurane anesthesia, as previously described ([…]., Honore, P., 2009, Pharmacological modulation of movement-evoked pain in a rat model, Eur. J. […] Following injection, the animals were allowed to recover from the effects of anesthesia (usually 5-10 minutes) before returning them to their home cages. Grip strength was assessed in osteoarthritic rats as a measure of activity-induced pain. Measurements of peak hind limb grip force were conducted by recording the maximum compressive force (CFmax), in grams of force, exerted on the hind limb strain gauge, in a commercially available grip force measurement system (Columbus Instruments, Columbus, Ohio). During testing, each rat was gently restrained and allowed to grasp the wire mesh frame (10×12 cm) attached to the strain gauge. The animal was then moved in a rostral-to-caudal direction until the grip was broken. Each rat was sequentially tested twice at an approximately two-three minute interval to obtain a raw mean grip force (CFmax in gram force units). In order to account for the body weight differences among the rats, this raw mean grip force was converted to a maximum hind limb compressive force for each animal by dividing the CFmax by the body weight of the rat in kg [(CFmax in gram force)/kg body weight]. […] Compound A was administered in 10% DMSO/HBC vehicle orally at a volume of 2 ml/kg, 60 minutes before testing. The NSAID diclofenac (30 mg/kg, p.o.) was given 60 minutes before data collection and used as a positive control. A group of age-matched naïve (not injected with MIA) animals was added as a comparator to the drug-dosed groups. The vehicle control response for each group of MIA-treated animals was defined as the 0% response (0% effect), whereas the naïve control group was defined as the normal response and as 100% effect. The % effects for each dose group was expressed as % return of response to normalcy, compared to the naïve group. That is, the % effect=(Treatment CFmax-Vehicle CFmax)[…]]×100). Higher % effect numbers indicate increased relief from the pain in the model, with 100% indicating a return to the level of response seen in normal (non-osteoarthritic) animals. The data obtained from various dose groups for the test compound were compared with data from the naïve group.

Structure (SMILES) | change in Paw Withdrawal Threshold versus vehicle [1] | percent return of grip force to normalcy ([2]; 3 μmol/kg p.o., 60 minutes before data collection, MIA rats) | percent return of grip force to normalcy ([2]; 10 μmol/kg p.o., 60 minutes before data collection, MIA rats) | percent return of grip force to normalcy ([2]; 30 μmol/kg p.o., 60 minutes before data collection, MIA rats) | ED50 (return of grip force to normalcy) ([2]; p.o., 60 minutes before testing, MIA rats) | % Effect (return of grip force to normalcy) ([2]; 30 mg/kg p.o., 60 minutes before data collection, positive control)
c1cc2cc(-c3ccc(O[C@H]4C[C@H]5CC[C@@H](C4)N5)cn3)ccc2[nH]1 [Compound A, 5-(5-((1R,3r,5S)-8-azabicyclo[3.2.1]octan-3-yloxy)pyridine-2-yl)-1H-indole] | statistically significant change | approximately 39% | ~60% | ~73% | approximately 6 μmol/kg | 
O=C(O)Cc1ccccc1Nc1c(Cl)cccc1Cl [diclofenac, reference compound] |  |  |  |  |  | about 69%
